We go through 16 compounds from PubChem BioAssay AID330 (DTP/NCI, 2004).

SMILES strings stand for the structures. Values joined by “and” are separate entries in the source; they are usually repeats but may differ in a detail not shown here. Identical values can stand only once. Toxic doses and inconclusive results are not listed.

The subject of the assay is P388 leukemia ip, CD2F1 mice, survival T/C. In words: NCI In Vivo Anticancer Drug Screen. Data for tumor model P388 Leukemia (intraperitoneal) in CD2F1 (CDF1) mice. The settings on record: endpoint: median survival time, higher = longer survival. The method, boiled down: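 Mice carrying the transplanted tumor received test compound or vehicle. Survival was recorded in each group, and the value is the treated-group measurement divided by that of the vehicle-treated control group.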

The mark [1] stands for this setting: dose: 12.5 mg/kg/injection, schedule: Q01DX005 (ip), vehicle: Klucel (hydroxypropylcellulose) (HPC).
[2] abbreviates: dose: 25.0 mg/kg/injection, schedule: Q01DX005 (ip), vehicle: Klucel (hydroxypropylcellulose) (HPC).
The mark [3] stands for this setting: dose: 50.0 mg/kg/injection, schedule: Q01DX005 (ip), vehicle: Klucel (hydroxypropylcellulose) (HPC).
Setting [4] is: dose: 100.0 mg/kg/injection, schedule: Q01DX005 (ip), vehicle: Klucel (hydroxypropylcellulose) (HPC).
The mark [5] stands for this setting: dose: 200.0 mg/kg/injection, schedule: Q01DX005 (ip), vehicle: Klucel (hydroxypropylcellulose) (HPC).
Setting [6] is: dose: 50.0 mg/kg/injection, schedule: Q01DX009 (ip), vehicle: saline with Tween-80.
The mark [7] stands for this setting: dose: 100.0 mg/kg/injection, schedule: Q01DX009 (ip), vehicle: saline with Tween-80.
[8] abbreviates: dose: 200.0 mg/kg/injection, schedule: Q01DX009 (ip), vehicle: saline with Tween-80.

For `Cc1cc(O)c2c(c1)C(=O)c1c(c(O)cc(O)c1-c1c(O)cc(O)c3c1C(=O)c1cc(C)cc(O)c1C3=O)C2=O`, the T/C runs as follows: (dose: 3.0 mg/kg/injection, schedule: Q01DX005 (ip), vehicle: Klucel (hydroxypropylcellulose) (HPC)) 95 % of control; (dose: 6.0 mg/kg/injection, schedule: Q01DX005 (ip), vehicle: Klucel (hydroxypropylcellulose) (HPC)) 99 % of control; (dose: 12.0 mg/kg/injection, schedule: Q01DX005 (ip), vehicle: Klucel (hydroxypropylcellulose) (HPC)) 96 % of control; under setting [1], 91 % of control; (dose: 24.0 mg/kg/injection, schedule: Q01DX005 (ip), vehicle: Klucel (hydroxypropylcellulose) (HPC)) 93 % of control; under setting [2], 93 % of control.

As for `Cc1ccc(-c2nnc3cc(C)n4nnnc4n23)cc1`, the T/C is, setting by setting: (dose: 6.25 mg/kg/injection, schedule: Q01DX005 (ip), vehicle: Klucel (hydroxypropylcellulose) (HPC)) 101 % of control; under setting [1], 108 % of control; under setting [2], 108 % of control; under setting [3], 101 % of control; under setting [4], 105 % of control; under setting [5], 107 % of control.

As for `NC(CSCCSCC(N)C(=O)O)C(=O)O` (stereo not drawn), the T/C runs as follows: (dose: 50.0 mg/kg/injection, schedule: Q01DX009 (ip), vehicle: Klucel (hydroxypropylcellulose) (HPC)) 110 % of control; (dose: 100.0 mg/kg/injection, schedule: Q01DX009 (ip), vehicle: Klucel (hydroxypropylcellulose) (HPC)) 98 % of control; (dose: 200.0 mg/kg/injection, schedule: Q01DX009 (ip), vehicle: Klucel (hydroxypropylcellulose) (HPC)) 104 % of control.

Turning to `CCCCCCOCC(=O)OC`, the T/C reads like this: under setting [6], 103 % of control; under setting [7], 102 % of control; under setting [8], 102 % of control.

In the case of `CN(C)c1ccc(/C=N/NC(=O)C(=O)NCc2ccco2)cc1`, the T/C by setting is: under setting [6], 94 % of control; under setting [7], 86 % of control; under setting [8], 91 % of control.

On to `O=C1NC(O)c2cc(Br)ccc2O1` (stereo not drawn), for which the T/C by setting is: under setting [3], 100 % of control; under setting [4], 104 % of control; under setting [5], 106 % of control.

For `C/C=C1/C[N+]2([O-])CC[C@@]34c5ccc(OC)cc5N(C)[C@H]3C2CC1C4C(=O)OC` (stereo partly drawn), the T/C by setting is: (dose: 2.5 mg/kg/injection, schedule: Q01DX005 (ip), vehicle: Klucel + Tween-80) 96 % of control; (dose: 5.0 mg/kg/injection, schedule: Q01DX005 (ip), vehicle: Klucel + Tween-80) 97 % of control; (dose: 10.0 mg/kg/injection, schedule: Q01DX005 (ip), vehicle: Klucel + Tween-80) 98 % of control; (dose: 20.0 mg/kg/injection, schedule: Q01DX005 (ip), vehicle: Klucel + Tween-80) 98 % of control.

In the case of `CC(C)NC(=O)C(C)O` (stereo not drawn), the T/C (dose: 50.0 mg/kg/injection, schedule: Q01DX005 (ip), vehicle: saline) is 101 % of control; the T/C (dose: 100.0 mg/kg/injection, schedule: Q01DX005 (ip), vehicle: saline) was 101 % of control; the T/C (dose: 200.0 mg/kg/injection, schedule: Q01DX005 (ip), vehicle: saline) was 101 % of control.

Take `CCC(=O)N(C)[C@@H](C)C(=O)O[C@H]1CC(=O)N(C)c2cc(cc(OC)c2Cl)C/C(C)=C/C=C[C@@H](OC)[C@@]2(O)C[C@H](OC(=O)N2)[C@@H](C)[C@@H]2O[C@@]12C`: the T/C (dose: 0.1 micrograms/kg/injection, schedule: Q01DX009 (ip), vehicle: saline) is 105 % of control; the T/C (dose: 0.2 micrograms/kg/injection, schedule: Q01DX009 (ip), vehicle: saline) was 123 % of control; the T/C (dose: 3.1 micrograms/kg/injection, schedule: Q01DX009 (ip), vehicle: saline + alcohol) was 160 % of control; the T/C (dose: 3.1 micrograms/kg/injection, schedule: Q01DX009 (ip), vehicle: saline) was 150 % of control; the T/C (dose: 6.3 micrograms/kg/injection, schedule: Q01DX009 (ip), vehicle: saline + alcohol) was 151 % of control; the T/C (dose: 6.3 micrograms/kg/injection, schedule: Q01DX009 (ip), vehicle: saline) is 161 % of control.

For `O=C(O)C(=O)O.O=C(O)C(=O)O.O=C(O)C(=O)O.[Ru]`, the T/C (dose: 12.5 mg/kg/injection, schedule: Q04DX003 (ip), vehicle: water) was 110 % of control and 87 % of control.

Turning to `CCNC(=O)Nc1ccc(Cl)cn1`, the T/C reads like this: (dose: 50.0 mg/kg/injection, schedule: Q01DX009 (ip), vehicle: saline) 102 % of control; (dose: 100.0 mg/kg/injection, schedule: Q01DX009 (ip), vehicle: saline) 105 % of control; (dose: 200.0 mg/kg/injection, schedule: Q01DX009 (ip), vehicle: saline) 105 % of control.

With `COc1cccc2c1C(=O)c1c(O)c3c(c(O)c1C2=O)CC(O)(C(C)=O)CC3OC1CC(NC(=O)C(F)(F)F)C(OC(=O)c2ccc([N+](=O)[O-])cc2)C(CNC(=O)C(F)(F)F)O1` (stereo not drawn), the T/C reads like this: (dose: 3.13 mg/kg/injection, schedule: Q04DX003 (ip), vehicle: distilled water + Tween-80) 92 % of control; (dose: 6.25 mg/kg/injection, schedule: Q04DX003 (ip), vehicle: distilled water + Tween-80) 100 % of control; (dose: 12.5 mg/kg/injection, schedule: Q04DX003 (ip), vehicle: distilled water + Tween-80) 96 % of control; (dose: 25.0 mg/kg/injection, schedule: Q04DX003 (ip), vehicle: distilled water + Tween-80) 96 % of control; (dose: 50.0 mg/kg/injection, schedule: Q04DX003 (ip), vehicle: distilled water + Tween-80) 100 % of control.

Turning to `COc1cccc(/C=C/C(=O)O)c1OC`, the T/C was 98 % of control (dose: 25.0 mg/kg/injection, schedule: Q01DX009 (ip), vehicle: water); 91 % of control (dose: 50.0 mg/kg/injection, schedule: Q01DX009 (ip), vehicle: water); 94 % of control (dose: 100.0 mg/kg/injection, schedule: Q01DX009 (ip), vehicle: water); 100 % of control (dose: 200.0 mg/kg/injection, schedule: Q01DX009 (ip), vehicle: water); 98 % of control (dose: 400.0 mg/kg/injection, schedule: Q01DX009 (ip), vehicle: water).

Consider `COC1/C=C/OC2(C)Oc3c(C)c(O)c4c(O)c(c(/C=N/N5C(C)CN(Cc6cccc(O)c6)CC5C)c(O)c4c3C2=O)NC(=O)/C(C)=C\C=C\C(C)C(O)C(C)C(O)C(C)C(OC(C)=O)C1C` (stereo not drawn), for which the T/C reads like this: under setting [6], 102 % of control; under setting [7], 100 % of control; under setting [8], 118 % of control.

As for `O=C1NC(=O)C(=Cc2c(Cl)cccc2Cl)C(=O)N1`, the T/C reads like this: (dose: 12.5 mg/kg/injection, schedule: Q01DX009 (ip), vehicle: saline with Tween-80) 116 % of control; (dose: 25.0 mg/kg/injection, schedule: Q01DX009 (ip), vehicle: saline with Tween-80) 122 % of control; under setting [6], 122 % of control.

As for `CN[C@H]1CCc2cc(OC)c(OC)c(OC)c2-c2ccc(O)c(=O)cc21`, the T/C reads like this: (dose: 2.5 mg/kg/injection, schedule: Q01DX009 (ip), vehicle: Klucel (hydroxypropylcellulose) (HPC)) 103 % of control; (dose: 5.0 mg/kg/injection, schedule: Q01DX009 (ip), vehicle: Klucel (hydroxypropylcellulose) (HPC)) 100 % of control; (dose: 10.0 mg/kg/injection, schedule: Q01DX009 (ip), vehicle: Klucel (hydroxypropylcellulose) (HPC)) 99 % of control; (dose: 20.0 mg/kg/injection, schedule: Q01DX009 (ip), vehicle: Klucel (hydroxypropylcellulose) (HPC)) 93 % of control; (dose: 40.0 mg/kg/injection, schedule: Q01DX009 (ip), vehicle: Klucel (hydroxypropylcellulose) (HPC)) 92 % of control; (dose: 80.0 mg/kg/injection, schedule: Q01DX009 (ip), vehicle: Klucel (hydroxypropylcellulose) (HPC)) 108 % of control.
